# Results: patent US11786494B2, “Methods of modulation of branched chain acids and uses thereof” (Baylor College of Medicine, priority 2009, dated 2023)
# Target: T1, phosphorylated E1 (Homo sapiens, UniProt P12694+P21953)
# T1 sequence (P12694 46-445): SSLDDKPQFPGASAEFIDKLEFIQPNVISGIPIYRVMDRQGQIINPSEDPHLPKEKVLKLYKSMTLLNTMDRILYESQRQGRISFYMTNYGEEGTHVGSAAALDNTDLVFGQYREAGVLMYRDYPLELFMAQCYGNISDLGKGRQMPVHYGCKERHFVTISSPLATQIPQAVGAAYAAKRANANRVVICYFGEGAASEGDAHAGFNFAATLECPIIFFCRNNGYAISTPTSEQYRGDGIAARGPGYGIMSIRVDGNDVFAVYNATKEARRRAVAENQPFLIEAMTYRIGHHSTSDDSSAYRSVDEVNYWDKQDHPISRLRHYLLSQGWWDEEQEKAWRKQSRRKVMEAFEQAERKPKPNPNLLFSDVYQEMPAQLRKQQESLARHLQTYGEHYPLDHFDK
# T1 sequence (P21953 51-392): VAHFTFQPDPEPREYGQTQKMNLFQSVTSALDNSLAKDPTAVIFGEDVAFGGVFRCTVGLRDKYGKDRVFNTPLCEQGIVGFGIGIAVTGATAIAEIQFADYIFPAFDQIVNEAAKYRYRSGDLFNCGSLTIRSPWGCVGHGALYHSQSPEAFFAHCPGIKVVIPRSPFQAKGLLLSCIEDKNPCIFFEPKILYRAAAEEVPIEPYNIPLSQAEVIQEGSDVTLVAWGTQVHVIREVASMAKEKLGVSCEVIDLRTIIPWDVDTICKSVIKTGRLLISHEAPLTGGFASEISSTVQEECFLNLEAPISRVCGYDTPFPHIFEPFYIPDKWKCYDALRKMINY
# Assay: E1 decarboxylase activity measured after inactivation by BDK
# Format: biochemical
# Description: To determine the effect of phenylbutyrate on individual BCAA catabolic enzymes, activities of mitochondrial branched chain amino transferase (BCATm) and BCKDC enzymes were measured with and without phenylbutyrate using purified recombinant enzymes. BCATm generates the BCKA products that are elevated in MSUD and are the substrates for BCKDC. BCATm activity was measured at pH 8.0 and 298 K as described in Example 2. Kinetics of the E1 decarboxylase reaction with and without phenylbutyrate were determined in the presence of an artificial electron acceptor 2, 6-dichlorophenolindophenol (DCPIP). The assay mixture contained 100 mM potassium phosphate, pH 7.5, 2.0 mM MgCl2, 0.2 mM thiamin diphosphate (ThDP) and 0.1 mM DCPIP. The rate of decarboxylation at 30° C. was measured by monitoring the reduction of the dye at 600 nm (24, 25). For the overall BCKDC activity assay, the enzymes were exchanged into phosphate buffer (30 mM potassium phosphate, pH 7.5) containing 5 mM DTT using a PD-10 column and the enzyme concentrations were calculated from the absorption maxima at 280 nm. […] The overall reaction was monitored by formation of NADH at 340 nm. The apparent rate constants (kapp) at different substrate concentrations for all of the above assays were determined from the absorption changes at the individual wavelength maximum. […]
smiles,measurement,setting,value
"O=C([O-])CCCc1ccccc1.[Na+] [phenylbutyrate, sodium 4-phenylbutyrate]",effect on phosphorylated E1 (inactive enzyme),,did not have an effect
same,"kcat, KMV","E1 phosphorylated first with BDK (0.1 μg) and ATP (0.4 mM), [+] Phenylbutyrate",0.01 ± 0.0017 s⁻¹
